The text below walks through data of patent US11174216B2, “Lipids that increase insulin sensitivity and methods of using the same” (Beth Israel Deaconess Medical Center, Inc., priority 2012, dated 2021).

Each structure is given as a SMILES string.

The test system of data set [1] is isolated rat islets. The data set is described as follows: Insulin release studies in rat islets. The settings on record: 25 mM glucose in the media. The data set is classed as cell-based. The procedure: Ins1 cells (FIGS. 31A and 31B) or primary rat islet cells (FIG. 32A and FIG. 32B) were seeded in 24 well-plates [˜10^6 cells/well]. At confluence, cells were incubated with Low Serum [2.5%] and Low Glucose [2.5 mM] media for 12 hours. Next, cells were incubated with KRB buffer for 1 h and stimulated with glucose in the presence of 5-PAHSA (FIGS. 31a and 31B) or 9-PAHSA (FIG. 31B) for 45 min in KRB. At the end of the stimulation, 100 μL of media was collected and 10 μL was used to quantitate the amount of insulin released by ELISA. Treatment Conditions for FIGS. 31A, 31B and 32B were: • 5-PAHSA or 9-PAHSA [Stock]=20.0 mM [10.76 mg/mL Methanol] • A] 1 uM=0.3 uL/6 mL [Amount of methanol/mL=0.05 uL] • B] 5 uM=1.5 uL/6 mL [Amount of methanol/mL=0.25 uL] • C] 10 uM=3.0 uL/6 mL [Amount of methanol/mL=0.50 uL] • D] 20 uM=6.0 uL/6 mL [Amount of methanol/mL=1.00 uL] […]
Isolated rat islets were cultured overnight in RPMI 1640 medium containing 2.5 mM glucose and 2.5% fetal bovine serum supplemented with 100 IU/ml penicillin and 100 IU/ml streptomycin, 1 mM sodium pyruvate, and 10 mM HEPES (pH 7.4). […] At the end of the stimulation supernatant was collected and insulin released into the medium was quantified by ELISA as per manufacturer's protocol. The islets were lysed and protein content was measured and the amount of insulin released into the media was quantitated as ng/mL/μg of protein.

The target in data set [2] is T1, purified CEL (Homo sapiens, UniProt P19835).
T1 construct: purchased R&D Systems
T1 sequence (P19835 21-753): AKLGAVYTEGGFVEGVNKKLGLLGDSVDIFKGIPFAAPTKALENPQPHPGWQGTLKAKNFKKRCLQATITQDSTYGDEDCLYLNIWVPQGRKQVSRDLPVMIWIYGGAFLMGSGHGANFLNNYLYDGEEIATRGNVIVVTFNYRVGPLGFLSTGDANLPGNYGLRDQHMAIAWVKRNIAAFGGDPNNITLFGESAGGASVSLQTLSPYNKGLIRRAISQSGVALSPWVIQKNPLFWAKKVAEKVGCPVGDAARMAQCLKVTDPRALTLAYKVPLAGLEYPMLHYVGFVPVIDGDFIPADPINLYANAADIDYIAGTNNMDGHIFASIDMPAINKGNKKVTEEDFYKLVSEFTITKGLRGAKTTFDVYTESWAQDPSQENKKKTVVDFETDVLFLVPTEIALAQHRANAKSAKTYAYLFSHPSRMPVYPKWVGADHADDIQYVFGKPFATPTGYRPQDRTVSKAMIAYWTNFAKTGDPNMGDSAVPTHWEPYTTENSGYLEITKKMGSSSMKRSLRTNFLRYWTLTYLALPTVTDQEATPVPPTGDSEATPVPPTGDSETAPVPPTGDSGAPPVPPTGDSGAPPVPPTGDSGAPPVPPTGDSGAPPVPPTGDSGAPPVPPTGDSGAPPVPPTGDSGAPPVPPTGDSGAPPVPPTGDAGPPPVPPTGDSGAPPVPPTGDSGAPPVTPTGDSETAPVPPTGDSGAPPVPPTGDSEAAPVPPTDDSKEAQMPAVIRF
The data set is described as follows: Hydrolysis of 9-PAHSA by purified CEL. The data set is classed as biochemical. The settings on record: micellar concentrations of NaTC. The text has this: To confirm the identification of CEL as a FAHFA hydrolase, a small amount of purified enzyme (available commercially from R&D Systems) was used.

Consider `CCCCCCCCCCCCCCCC(=O)OC(CCCCCCCCCCCCC)CCCC(=O)O` (centres unmarked) [5-PAHSA], for which, in data set [1], the glucose-stimulated insulin secretion result was “potentiates glucose-stimulated insulin secretion”.
As to `CCCCCCCCCCCCCCCC(=O)OC(CCCCCCCCC)CCCCCCCC(=O)O` (centres unmarked) [9-PAHSA, palmitoyl-9-hydroxystearic acid], the “hydrolysis, measured by 9-HSA production” value in data set [2] is “substantial hydrolysis”.
